Laboratory results as given in patent US7507733B2, “11b-HSD1 inhibitors for the treatment of diabetes” (Hoffmann-La Roche Inc., priority 2004, dated 2009).

Experiments:
11beta-HSD1 [1] = target: T1, 11beta-HSD1 (Homo sapiens, UniProt P28845); experiment: Microsome assay: cortisone to cortisol conversion, ELISA detection; assay type: biochemical; design: The cDNA encoding the human 11beta-HSD1 protein was cloned into the expression vector pcDNA3; made in house; host or cells: HEK293 cells (ATCC CRL-1573), transient transfection; microsomal fraction; conditions: microsomes from HEK293 cells transiently expressing human 11beta-HSD1; 60 min, 37° C.; Cortisone 50-200 nM, NADPH 1 mM; read-out: h 11-beta-HSD 1 IC50
Experimental: The cDNA encoding the human 11beta-HSD1 protein was cloned into the expression vector pcDNA3 ([…]). This construct (for details see Alex Odermatt et al.; J Biol Chem., 1999, Vol. 274, Issue 40, 28762-28770) was used to transiently express the protein in HEK293 cells (ATCC number: CRL-1573, described in Graham, F. L., Smiley, J., Russell, W. C., Nairn, R.; (1977)) using lipofectamine. 48 h after transfection cells were washed twice with ice-cold PBS (Phsophate buffered Saline). To 1 volume of cell suspension in PBS 2 volumes of ice-cold lysis buffer (50 mM Tris; pH7.5; 1 mM EDTA; 100 mM NaCl) were added. The cells were lysed by Potter-homogenization (20 strokes). The resulting homogenate was sonicated with a tip sonicator (10% output; 2×30 sec.) and cleared by a low speed centrifugation (10 min×9000 g; 4° C.). The microsomal fraction was collected by a high speed centrifugation (60 min×110,000 g). […]
Microsomes isolated from HEK293 cells transiently expressing human 11beta-HSD1 (for details see above) were incubated in assay buffer (100 mM NaCl; 1 mM EDTA; 1 mM EGTA; 1 mM MgCl; 250 mM Sucrose; 20 mM Tris pH 7.4; Cortisone 50-200 nM and NADPH 1 mM) together with different concentrations of test substances. […] The amount of Cortisol produced in this assay was determined using a commercially available, ELISA-based Cortisol-detection kit (Distributed by Assay Design, Inc.). […]

11beta-HSD1 [2] = target: T1, 11beta-HSD1; design: host or cells: human subjects (in vivo); conditions: treatment of humans with carbenoxolone; cited from earlier work

T1 sequence (P28845 whole entry): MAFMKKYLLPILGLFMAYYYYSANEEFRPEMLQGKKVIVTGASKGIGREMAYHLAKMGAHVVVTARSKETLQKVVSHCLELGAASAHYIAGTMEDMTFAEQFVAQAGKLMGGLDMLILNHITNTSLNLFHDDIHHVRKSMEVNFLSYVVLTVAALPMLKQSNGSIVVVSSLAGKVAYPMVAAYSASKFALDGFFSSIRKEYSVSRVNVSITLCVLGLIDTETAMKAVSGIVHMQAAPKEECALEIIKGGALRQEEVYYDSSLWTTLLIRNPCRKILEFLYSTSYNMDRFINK

IC50 (11beta-HSD1 [1]) [nM] | Structure (SMILES) | effect on insulin sensitivity (11beta-HSD1 [2])
167 | CC(C)c1nccc(NS(=O)(=O)c2ccc3ccccc3c2)n1 [Example 26, Naphthalene-2-sulfonic acid (2-isopropyl-pyrimidin-4-yl)-amide] | 
20 | O=S(=O)(Nc1ccnc(C2CC2)n1)c1ccc(-c2ccccc2)cc1 [Example 5, Biphenyl-4-sulfonic acid (2-cyclopropyl-pyrimidin-4-yl)-amide] | 
 | CC1(C)[C@@H](OC(=O)CCC(=O)O)CC[C@]2(C)[C@H]3C(=O)C=C4[C@@H]5C[C@@](C)(C(=O)O)CC[C@]5(C)CC[C@@]4(C)[C@]3(C)CC[C@@H]12 [carbenoxolone] | increase in insulin sensitivity
